Patent publication US8927588B2, “Imidazole carbonyl compound” (Daiichi Sankyo Company, Limited, priority 2007, dated 2015)
In brackets after ≈: the same amount, converted by molar mass. Like-named read-outs stand apart in the source and are kept apart here.

What was measured:
[1] = target: ParE of Haemophilus influenzae (Haemophilus influenzae, UniProt P43703); assay: ATP hydrolysis inhibition assay (pyruvate kinase/lactate dehydrogenase coupled), ParE of Haemophilus influenzae; assay type: biochemical
Experimental: The ATP hydrolysis activity of GyrB and ParE was determined by correlating it with ADP production and NADH oxidation mediated by pyruvate kinase/lactate dehydrogenase. This method has been previously reported (Tamura, J. K. and Gellert, M. 1990, J. Biol. Chem. 265:21342-21349).
The ATP hydrolysis assay was carried out in a buffer solution containing final concentrations of 100 mM Tris-HCl (pH 7.5), 150 mM KCl, 1.5 mM MgCl2, 0.4 mM nicotinamide adenine dinucleotide (NADH), 2.5 mM phosphoenolpyruvate, 1 mM DTT, 15 U/ml pyruvate kinase, 10.5 U/ml lactate dehydrogenase and 1 mU/ml enzyme (GyrB or ParE of Streptococcus pneumoniae or Haemophilus influenzae) (provided that the concentration of KCl was 25 mM and the concentration of MgCl2 was 10 mM in the case of ParE of Haemophilus influenzae). A solution of the test compound serially four-fold diluted in DMSO:MeOH (7:3) was added at a final concentration of 5% (v/v). […] ATP was added at a final concentration of 1 mM; after mixing, the absorbance at 340 nm (amount of NADH) was determined (provided that the final ATP concentration was 0.3 mM in the case of ParE of Haemophilus influenzae). The reaction solution was incubated at 30° C. for two hours, and then the absorbance at 340 nm was determined. The ATP hydrolysis inhibition rate (%) was calculated from the difference in absorbance before and after the incubation (amount of NADH oxidized). […]

Haemophilus influenzae = assay: Sensitivity of bacteria, broth microdilution method (MIC); assay type: cell-based; settings: medium obtained by mixing hemophilus test medium with human serum at a ratio of 1:1
Experimental: The antibacterial activity of the compounds of the present invention was tested by sensitivity tests by the broth microdilution method. The assay was carried out according to the latest CLSI guidelines for managing the procedures of sensitivity tests: “M7-A7 Methods for Dilution Antimicrobial Susceptibility Tests for Bacteria That Grow Aerobically; Approved Standard—Seventh Edition (2006)”. Test strains were grown on appropriate agar plates overnight. A broth containing the test compound serially two-fold diluted was dispensed at 100 μL to each well of a 96-well microplate. As a growth control, a well with a broth not containing the test compound was also prepared. Colonies grown on the plates were suspended in saline, adjusted to 0.5 McFarland (OD625=0.08 to 0.10) using a colorimeter, and then diluted ten-fold with saline. The bacterial suspension was inoculated at 4 μL into each well of the microplate using a bacterial suspension inoculation apparatus. The inoculated microplate was incubated at 35° C. overnight (about 20 hours). The growth condition was observed by the naked eye, and the minimum concentration to inhibit bacterial proliferation was defined as a minimum inhibitory concentration (MIC).

HeLa cell proliferation = assay: Cytotoxicity test, HeLa cell proliferation (MTS-PMS); assay type: cell-based; settings: human, HeLa cells, 48 hours incubation, read-out: IC50 (cytotoxicity, proliferation inhibition)
Experimental: 50 μL of a HeLa cell solution containing 80000 cells/mL was inoculated into each well of a 96-well microplate, and the mixture was incubated at 37° C. in a 5% carbon dioxide incubator for 24 hours. Thereafter, a medium containing the test compound serially four-fold diluted was added at 50 μL to each well, and the mixture was incubated at 37° C. in a 5% carbon dioxide incubator for 48 hours. As a control with an inhibition rate of 0%, a well not containing the test compound was also prepared. Following washing with phosphate buffered saline, a MTS [3-(4,5-dimethylthiazol-2-yl)-5-(3-carboxymethoxyphenyl)-2-(4-sulphophenyl)-2H-tetrazolium, inner salt]-PMS (phenazine methosulfate) coloring reagent solution was added, and the mixture was allowed to stand at 37° C. in a 5% carbon dioxide incubator for 1.5 hours. Thereafter, the absorbance at 490 nm was determined. The 50% inhibition concentration (IC50) was calculated from the proliferation inhibition rate (%) in the presence of four different concentrations of the test compound.

[2] = Solubility in water (JP1 fluid / JP2 fluid); assay type: physicochemical; settings: thermodynamic from solid, room temperature

Chain of ParE of Haemophilus influenzae (P43703 whole entry): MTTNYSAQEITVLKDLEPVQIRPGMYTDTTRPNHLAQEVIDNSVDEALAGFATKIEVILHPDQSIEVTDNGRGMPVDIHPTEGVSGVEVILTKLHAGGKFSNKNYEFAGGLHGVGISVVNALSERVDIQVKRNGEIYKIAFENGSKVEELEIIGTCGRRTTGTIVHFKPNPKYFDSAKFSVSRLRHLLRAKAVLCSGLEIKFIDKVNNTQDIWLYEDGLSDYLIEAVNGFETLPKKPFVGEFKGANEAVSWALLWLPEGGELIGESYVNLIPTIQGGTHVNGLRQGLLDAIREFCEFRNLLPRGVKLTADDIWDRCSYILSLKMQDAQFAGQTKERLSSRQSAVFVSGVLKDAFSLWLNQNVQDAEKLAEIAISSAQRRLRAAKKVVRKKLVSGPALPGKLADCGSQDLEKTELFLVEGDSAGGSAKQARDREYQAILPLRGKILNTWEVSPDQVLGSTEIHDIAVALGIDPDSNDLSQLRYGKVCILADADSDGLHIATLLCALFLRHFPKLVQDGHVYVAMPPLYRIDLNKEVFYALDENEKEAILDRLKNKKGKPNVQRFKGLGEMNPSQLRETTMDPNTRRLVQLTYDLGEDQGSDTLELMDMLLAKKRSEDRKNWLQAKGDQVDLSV

## CO[C@H]1CN(c2nc3cccc(C(=O)O)c3s2)CC[C@H]1NC(=O)c1nc(Cl)c(C)[nH]1 (racemic) [Example 8, cis(±)-2-(4-{[(4-Chloro-5-methyl-1H-imidazol-2-yl)carbonyl]amino}-3-methoxypiperidin-1-yl)-1,3-benzothiazole-7-carboxylic acid]
[1]
  IC50: 131 nM
Haemophilus influenzae
  MIC: 4 µg/mL
HeLa cell proliferation
  IC50 at 48 h: > 200 µg/mL
[2]; pH 1.2, simulated gastric fluid, 1st fluid for the disintegration test of the Japanese Pharmacopoeia, read-out: solubility in JP1 fluid
  solubility: 100 µg/mL (≈ 222 µM)
[2]; pH 6.8, aqueous buffer, 2nd fluid for the disintegration test of the Japanese Pharmacopoeia, read-out: solubility in JP2 fluid
  solubility: 720 µg/mL (≈ 1600 µM)
